Ten molecules from PMC7037548, “Microbial Transformation of Prenylquercetins by Mucor hiemalis” (Molecules, 2020) can be followed below.

In brackets after ≈: the same amount, converted by molar mass. A value given as a limit tells only on which side of the number the result lay.

The first data set is described as follows: Water solubility test. In kind it is physicochemical.
Settings: not given
Here is the method: The solubility of prenylquercetins and their glucosides were determined based on the previously reported method with some modifications. Briefly, each compound (4 mg) was dissolved in 1 mL of distilled water at room temperature followed by sonication for 10 min and centrifugation at 3600 rpm for 5 min at room temperature. Then the concentrations of the compounds in the supernatant were measured based on their peak areas utilizing calibration curves determined by the HPLC of authentic samples.
As for `CC(C)=CCc1cc(O[C@@H]2O[C@H](CO)[C@@H](O)[C@H](O)[C@H]2O)c(O)cc1-c1oc2c(CC=C(C)C)c(O[C@@H]3O[C@H](CO)[C@@H](O)[C@H](O)[C@H]3O)cc(O)c2c(=O)c1O` [Compound 8, 8,6′-Diprenylquercetin 7,4′-O-β-D-diglucopyranoside], the “Water solubility, comparison in words” value was “higher solubility than metabolite 9”.

Still in this data set, the particulars now being: distilled water, room temperature, 4 mg in 1 mL, sonication 10 min, centrifugation, supernatant by HPLC.
As to `O=c1c(O)c(-c2ccc(O)c(O)c2)oc2cc(O)cc(O)c12` [Quercetin], the “Solubility (water solubility)” value amounted to 36 µg/mL (≈ 119 µM).

The same data set, now with this note: water, thermodynamic from solid.
For `CC(C)=CCc1c(O)cc(O)c2c(=O)c(O)c(-c3ccc(O)c(O)c3)oc12` [Compound 1, 8-prenylquercetin], the concentration in solution (solubility at 10 min) came to 13 µg/mL (≈ 35.1 µM). For `CC(C)=CCc1cc(O)c(O)cc1-c1oc2cc(O)cc(O)c2c(=O)c1O` [Compound 2, 6′-prenylquercetin], the concentration in solution (solubility at 10 min) came to 63 µg/mL (≈ 170 µM). The same measure, in the same setting: the value for `CC(C)=CCc1cc(O)c(O)cc1-c1oc2c(CC=C(C)C)c(O)cc(O)c2c(=O)c1O` [Compound 3, 8,6′-diprenylquercetin] was 20 µg/mL (≈ 45.6 µM). Same read-out and setting: the value for `CC(C)=CCc1c(O[C@@H]2O[C@H](CO)[C@@H](O)[C@H](O)[C@H]2O)cc(O)c2c(=O)c(O)c(-c3ccc(O)c(O)c3)oc12` [Compound 4, 8-Prenylquercetin 7-O-β-D-glucopyranoside] was 501 µg/mL (≈ 941 µM). The same measure, in the same setting: the value for `CC(C)=CCc1c(O)cc(O)c2c(=O)c(O[C@@H]3O[C@H](CO)[C@@H](O)[C@H](O)[C@H]3O)c(-c3ccc(O)c(O)c3)oc12` [Compound 5, 8-Prenylquercetin 3-O-β-D-glucopyranoside] was 385 µg/mL (≈ 723 µM); that for `CC(C)=CCc1cc(O)c(O)cc1-c1oc2cc(O[C@@H]3O[C@H](CO)[C@@H](O)[C@H](O)[C@H]3O)cc(O)c2c(=O)c1O` [Compound 6, 6′-Prenylquercetin 7-O-β-D-glucopyranoside] was 1980 µg/mL (≈ 3710 µM). In turn, `CC(C)=CCc1cc(O[C@@H]2O[C@H](CO)[C@@H](O)[C@H](O)[C@H]2O)c(O)cc1-c1oc2cc(O)cc(O)c2c(=O)c1O` [Compound 7, 6′-Prenylquercetin 4′-O-β-D-glucopyranoside] yielded a solubility at 10 min of 3640 µg/mL (≈ 6830 µM). Same read-out and setting: the same measure for `CC(C)=CCc1cc(O[C@@H]2O[C@H](CO)[C@@H](O)[C@H](O)[C@H]2O)c(O)cc1-c1oc2c(CC=C(C)C)c(O[C@@H]3O[C@H](CO)[C@@H](O)[C@H](O)[C@H]3O)cc(O)c2c(=O)c1O` [Compound 8, 8,6′-Diprenylquercetin 7,4′-O-β-D-diglucopyranoside]: greater than 4000 µg/mL; for `CC(C)=CCc1cc(O)c(O)cc1-c1oc2c(CC=C(C)C)c(O[C@@H]3O[C@H](CO)[C@@H](O)[C@H](O)[C@H]3O)cc(O)c2c(=O)c1O` [Compound 9, 8,6′-Diprenylquercetin 7-O-β-D-glucopyranoside]: 613 µg/mL (≈ 1020 µM).
